Measurements: article PMC9925730, “Controlled sequential in situ self-assembly and disassembly of a fluorogenic cisplatin prodrug for cancer theranostics” (Nature Communications, 2023)
“And” between values parts separate entries of the source, which are not always exact repeats. Equal values may be shown once.

Experiments:
[1] = CMC of CyPt and stability of PtIVNPs under different pH conditions; format: physicochemical; conditions: for FL intensity at 710 nm: Supplementary Fig. 8 a
Description: Co n cen t rati o n (μM) Time (h) Time (h)
Supplementary Figure 8. Evaluation of the CMC and stability of PtIVNPs under different pH conditions. (a) Plots of the fluorescence intensity (λem = 710 nm) versus the concentration of CyPt in Tris buffer determine the CMC of CyPt, which was found to be ~0.3 μM according to the intersection of the two linear fit lines. (b, c) Monitoring of the hydrodynamic size of Pt IVNPs upon incubation under (b) pH = 5.0, and (c) pH = 7.4 (10 μM) for 0-24 h. Date denote mean ± s.d. (n = 3 independent experiments).
(also on this page, place not known: Na 3VO4 ( λem 850 800 Normalized FL intensity Tris Trypsin Caspase-3 Normalized FL intensity 200Diameter (nm) 10 Diameter (nm) 7.4(b) CMC=0.3 00 . . 51.0 Concentration FL intensity (1 X 105) 0 2 1.5 2.0 3.0 (c)(a))

HeLa cells = experiment: Distribution of Pt element in subcellular organelles (ICP-OES); format: cell-based
Description: Supplementary Table 3. Comparison of the distribution of Pt element in different subcellular organelles between P-CyPt and CDDP. a Subcellular Amount of Pt distributed in a Percentage of Pt distributed in organelles single cell’s organelle (fmol) b a single cell’s organelle (%) c […]
a HeLa cells were incubated with P-CyPt or CDDP (10 μM) for 1 h. After that, the cells were washed with PBS for three times, replaced with blank medium and cultured for another 24 h. The cells were trypsinized, collected, and the cell numbers were counted.
The cell pellets were dispersed in PBS buffer, lysed via ultrasound sonication, and centrifuged at different speed to separate membrane, nucleus, lysosome together with mitochondria, and cytoplasm. The concentration of Pt element in each organelle fraction was then measured by ICP-OES. Values denote mean ± s.d. (n = 3 independent […]
b The amount of Pt in a single HeLa cell’s subcellular organelle was calculated by dividing the total amount of Pt element in different subcellular organelles to the cell […]
c Percentage of Pt distributed in a single HeLa cell’s subcellular organelles was calculated by dividing the amount of Pt in a single cell’s subcellular organelles by the amount of Pt in a single cell (sum of organelles). […]
For Pt distribution analysis, the cells were treated with P-CyPt (10 μM) or CDDP (10 μM) for 1 h, and then washed with PBS for three times, followed by incubation with fresh medium for another 24 h. After that, cells were washed gently with 2 mL PBS once. The cells were trypsinized, centrifuged and counted. The cell lysates were separated according to a reported fragmentation procedure to obtained different cell fractions, including N (nuclei), M (plasma membrane), L (lysosomes and mitochondria) and C (cytosol). The Cells and different cell fractions were digested with concentrated HNO3 (65~70%) and HCl (36~38%) at 90 °C for 24 h. The solution was diluted to 5 mL 2% HNO3 and 5% HCl solution, and the concentration of Pt element was measured by ICP-OES, which was further applied to calculate the amount of Pt in cells and subcellular organelles. […]
The count number for each flow cytometry analysis was ~5000 to 10000, and the data was processed using FlowJo software.
Evaluation of the ability to break DNA double strand. Supercoiled pBR322 plasmi d DNA (20 ng μL–1) was incubated with blank Tris buffer (i) or Tris buffer containing GSH (2 mM, ii), Tris buffer containing CDDP (100 μM, iii), Tris buffer containing GSH (2 mM) and CDDP (100 μM, iv), Tris buffer containing P-CyPt (100 μM, v), Tris buffer containing P-CyPt (100 μM) and GSH (2 mM, vi), Tris buffer containing P-CyPt (100 μM) and ALP (500 U/L, vii), and Tris buffer containing P-CyPt (100 μM), ALP (500 U/L) and GSH (2 mM, viii) or incubated with P-CyPt ((0, 1, 2, 5, 10, 20, 50 and 100 μM, from i-viii) respectively in the presence of ALP (500 U/L), followed by incubation with GSH (2 mM) in Tris buffer) at 37 °C for 16 h. Then, the reactions (10 μL) were quenched by loading buffer (2 μL, including 30 mM EDTA, 36% glycerol, 0.05% xylene cyanol FF, and 0.05% bromophenol blue). The resulting solutions and 1kb-I DNA ladder (GsDL10001) were loaded into native agarose gel (1%) and subjected to electrophoresis in a TAE buffer (40 mM Tris acetate, 1 mM EDTA). The

[2] = Cytoplasm (C), individual samples
[3] = Cytoplasm (C), mean of 3 samples
[4] = HeLa, 10 μM 1 h, then blank medium 24 h
[5] = Membrane(M), individual samples
[6] = Mito&Lyso (L), individual samples
[7] = Mito&Lyso (L), mean of 3 samples
[8] = Nucleus (N), individual samples

Compound: CC1(C)C(/C=C/C2=C3Oc4cc(O)c(Cl)cc4C=C3CCC2)=[N+](CCCNC(=O)[C@@H](Cc2ccccc2)NC(=O)[C@@H](Cc2ccccc2)NC(=O)CCC(=O)[O][Pt]([NH2])([NH2])([OH])([Cl])[Cl])c2ccccc21 [CyPt]
- FL intensity at 710 nm ([1]; concentration of CyPt 0.05 μM): 2780
- FL intensity at 710 nm ([1]; concentration of CyPt 0.1 μM): 5650
- FL intensity at 710 nm ([1]; concentration of CyPt 0.2 μM): 11030
- FL intensity at 710 nm ([1]; concentration of CyPt 0.3 μM): 17800
- FL intensity at 710 nm ([1]; concentration of CyPt 0.5 μM): 19720
- FL intensity at 710 nm ([1]; concentration of CyPt 1 μM): 24040
- FL intensity at 710 nm ([1]; concentration of CyPt 2 μM): 35120
- FL intensity at 710 nm ([1]; concentration of CyPt 3 μM): 46610
- critical micellar concentration (CMC) ([1]; Tris buffer, fluorescence at 710 nm): ≈ 0.3 μM

Compound: CC1(C)C(/C=C/C2=C3Oc4cc(OP(=O)(O)O)c(Cl)cc4C=C3CCC2)=[N+](CCCNC(=O)[C@@H](Cc2ccccc2)NC(=O)[C@@H](Cc2ccccc2)NC(=O)CCC(=O)[O][Pt]([NH2])([NH2])([OH])([Cl])[Cl])c2ccccc21 [P-CyPt]
- Amount of Pt in subcellular fraction (HeLa cells; [2]): 10.4601 fmol and 9.6958 fmol and 8.113 fmol
- Distribution of Pt in subcellular fraction (HeLa cells; [2]): 43.0958% and 39.9467% and 33.4263%
- Amount of Pt in subcellular fraction (HeLa cells; [3]): 9.42 fmol
- Distribution of Pt in subcellular fraction (HeLa cells; [3]): 38.82%
- Amount of Pt distributed in a single cell's organelle: Cytoplasm (HeLa cells; [4]): 9.42 ± 1.20 fmol
- Amount of Pt distributed in a single cell's organelle: Lysosome & Mitochondria (HeLa cells; [4]): 6.34 ± 0.81 fmol
- Amount of Pt distributed in a single cell's organelle: Membrane (HeLa cells; [4]): 1.46 ± 0.19 fmol
- Amount of Pt distributed in a single cell's organelle: Nucleus (HeLa cells; [4]): 7.05 ± 0.90 fmol
- Percentage of Pt distributed in a single cell's organelle: Cytoplasm (cytosol) (HeLa cells; [4]): 38.82%
- Percentage of Pt distributed in a single cell's organelle: Lysosome & Mitochondria (HeLa cells; [4]): 26.11% and ~ 26.11%
- Percentage of Pt distributed in a single cell's organelle: Membrane (HeLa cells; [4]): 6.02%
- Percentage of Pt distributed in a single cell's organelle: Nucleus (HeLa cells; [4]): 29.05% and ~ 29.05%
- Amount of Pt in subcellular fraction (HeLa cells; [5]): 0.7699 fmol and 1.266 fmol and 2.345 fmol
- Distribution of Pt in subcellular fraction (HeLa cells; [5]): 3.1718% and 5.2172% and 9.6606%
- Amount of Pt in subcellular fraction (HeLa cells; Membrane(M), mean of 3 samples): 1.46 fmol
- Distribution of Pt in subcellular fraction (HeLa cells; Membrane(M), mean of 3 samples): 6.02%
- Amount of Pt in subcellular fraction (HeLa cells; [6]): 6.19 fmol and 6.277 fmol and 6.546 fmol
- Distribution of Pt in subcellular fraction (HeLa cells; [6]): 25.5012% and 25.8599% and 26.9676%
- Amount of Pt in subcellular fraction (HeLa cells; [7]): 6.34 fmol
- Distribution of Pt in subcellular fraction (HeLa cells; [7]): 26.11%
- Amount of Pt in subcellular fraction (HeLa cells; [8]): 6.061 fmol and 7.285 fmol and 7.806 fmol
- Distribution of Pt in subcellular fraction (HeLa cells; [8]): 24.9722% and 30.0159% and 32.1624%
- Amount of Pt in subcellular fraction (HeLa cells; Nucleus (N), mean of 3 samples): 7.05 fmol
- Distribution of Pt in subcellular fraction (HeLa cells; Nucleus (N), mean of 3 samples): 29.05%
